Test results as given in ChEMBL document CHEMBL1201862, “PubChem BioAssay data set” (2004).
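Five concentrations, 48 hours, 96-well plates. GI50 is the concentration that inhibits growth by half.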 Calls of active or inactive are those of the source. No stated cut-off is given here; in the data, active = GI50 up to about 1.1 µM and inactive = higher.

Assays:
Assay in all cases: inhibition of tumour cell growth, NCI panel, 48 h
IGROV-1 = test system: IGROV-1
MDA-MB-231 = test system: MDA-MB-231
U-251 = test system: U-251
MDA-MB-435 = test system: MDA-MB-435
RPMI-8226 = test system: RPMI-8226
T47D = test system: T47D
OVCAR-8 = test system: OVCAR-8
SK-MEL-28 = test system: SK-MEL-28
SNB-75 = test system: SNB-75
OVCAR-5 = test system: OVCAR-5
K562 = test system: K562
ACHN = test system: ACHN
SK-OV-3 = test system: SK-OV-3
NCI/ADR-RES = test system: NCI/ADR-RES
NCI-H23 = test system: NCI-H23
PC-3 = test system: PC-3
SK-MEL-5 = test system: SK-MEL-5
EKVX = test system: EKVX
HT-29 = test system: HT-29
HCT-116 = test system: HCT-116
UACC-257 = test system: UACC-257
A549 = test system: A549
HOP-92 = test system: HOP-92
DU-145 = test system: DU-145
NCI-H460 = test system: NCI-H460
A498 = test system: A498
CCRF-CEM = test system: CCRF-CEM
HCT-15 = test system: HCT-15
SNB-19 = test system: SNB-19
LOX IMVI = test system: LOX IMVI
M14 = test system: M14
SF-539 = test system: SF-539
NCI-H522 = test system: NCI-H522
Malme-3M = test system: Malme-3M
RXF 393 = test system: RXF 393
SF-295 = test system: SF-295
SW-620 = test system: SW-620
SR = test system: SR
UO-31 = test system: UO-31
HOP-62 = test system: HOP-62
MCF7 = test system: MCF7
OVCAR-4 = test system: OVCAR-4
OVCAR-3 = test system: OVCAR-3
SK-MEL-2 = test system: SK-MEL-2
Hs-578T = test system: Hs-578T
HCC 2998 = test system: HCC 2998
CAKI-1 = test system: CAKI-1
HL-60 = test system: HL-60
SF-268 = test system: SF-268
MOLT-4 = test system: MOLT-4
TK-10 = test system: TK-10
MDA-N = test system: MDA-N
786-0 = test system: 786-0
UACC-62 = test system: UACC-62
KM12 = test system: KM12
SN12C = test system: SN12C
COLO 205 = test system: COLO 205
NCI-H226 = test system: NCI-H226

Structure (SMILES): Cc1ccc2c(c1)CC1(Cc3cc(C)ccc3C1=O)C2=O
- GI50 (IGROV-1): > 100 µM (inactive)
- GI50 (MDA-MB-231): > 100 µM (inactive)
- GI50 (U-251): > 100 µM (inactive)
- GI50 (MDA-MB-435): > 100 µM (inactive)
- GI50 (RPMI-8226): > 100 µM (inactive)
- GI50 (T47D): > 100 µM (inactive)
- GI50 (OVCAR-8): > 100 µM (inactive)
- GI50 (SK-MEL-28): > 100 µM (inactive)
- GI50 (SNB-75): > 100 µM (inactive)
- GI50 (OVCAR-5): > 100 µM (inactive)
- GI50 (K562): > 100 µM (inactive)
- GI50 (ACHN): > 100 µM (inactive)
- GI50 (SK-OV-3): > 100 µM (inactive)
- GI50 (NCI/ADR-RES): > 100 µM (inactive)
- GI50 (NCI-H23): > 100 µM (inactive)
- GI50 (PC-3): > 100 µM (inactive)
- GI50 (SK-MEL-5): > 100 µM (inactive)
- GI50 (EKVX): > 100 µM (inactive)
- GI50 (HT-29): > 100 µM (inactive)
- GI50 (HCT-116): > 100 µM (inactive)
- GI50 (UACC-257): > 100 µM (inactive)
- GI50 (A549): > 100 µM (inactive)
- GI50 (HOP-92): > 100 µM (inactive)
- GI50 (DU-145): > 100 µM (inactive)
- GI50 (NCI-H460): > 100 µM (inactive)
- GI50 (A498): > 100 µM (inactive)
- GI50 (CCRF-CEM): > 100 µM (inactive)
- GI50 (HCT-15): > 100 µM
- GI50 (SNB-19): > 100 µM (inactive)
- GI50 (LOX IMVI): > 100 µM (inactive)
- GI50 (M14): > 100 µM (inactive)
- GI50 (SF-539): > 100 µM (inactive)
- GI50 (NCI-H522): > 100 µM (inactive)
- GI50 (Malme-3M): > 100 µM (inactive)
- GI50 (RXF 393): > 100 µM (inactive)
- GI50 (SF-295): > 100 µM (inactive)
- GI50 (SW-620): > 100 µM (inactive)
- GI50 (SR): > 100 µM (inactive)
- GI50 (UO-31): > 100 µM (inactive)
- GI50 (HOP-62): > 100 µM (inactive)
- GI50 (MCF7): > 100 µM (inactive)
- GI50 (OVCAR-4): > 100 µM (inactive)
- GI50 (OVCAR-3): > 100 µM (inactive)
- GI50 (SK-MEL-2): > 100 µM (inactive)
- GI50 (Hs-578T): > 100 µM (inactive)
- GI50 (HCC 2998): > 100 µM (inactive)
- GI50 (CAKI-1): > 100 µM (inactive)
- GI50 (HL-60): > 100 µM (inactive)
- GI50 (SF-268): > 100 µM (inactive)
- GI50 (MOLT-4): > 100 µM (inactive)
- GI50 (TK-10): > 100 µM (inactive)
- GI50 (MDA-N): > 100 µM (inactive)
- GI50 (786-0): > 100 µM (inactive)

Structure (SMILES): O/N=C1\CSc2ccccc2C1
- GI50 (IGROV-1): > 100 µM (inactive)
- GI50 (MDA-MB-231): > 100 µM (inactive)
- GI50 (U-251): > 100 µM (inactive)
- GI50 (MDA-MB-435): > 100 µM (inactive)
- GI50 (RPMI-8226): > 100 µM (inactive)
- GI50 (T47D): > 100 µM (inactive)
- GI50 (OVCAR-8): > 100 µM (inactive)
- GI50 (SK-MEL-28): > 100 µM (inactive)
- GI50 (UACC-62): > 100 µM (inactive)
- GI50 (OVCAR-5): > 100 µM (inactive)
- GI50 (K562): > 100 µM (inactive)
- GI50 (ACHN): > 100 µM (inactive)
- GI50 (KM12): > 100 µM (inactive)
- GI50 (SK-OV-3): > 100 µM (inactive)
- GI50 (SN12C): > 100 µM (inactive)
- GI50 (NCI/ADR-RES): > 100 µM (inactive)
- GI50 (NCI-H23): > 100 µM (inactive)
- GI50 (PC-3): > 100 µM (inactive)
- GI50 (SK-MEL-5): > 100 µM (inactive)
- GI50 (EKVX): 30.6 µM (inactive)
- GI50 (HT-29): > 100 µM (inactive)
- GI50 (COLO 205): > 100 µM (inactive)
- GI50 (HCT-116): > 100 µM (inactive)
- GI50 (UACC-257): > 100 µM (inactive)
- GI50 (A549): > 100 µM (inactive)
- GI50 (HOP-92): 59.4 µM (inactive)
- GI50 (DU-145): > 100 µM (inactive)
- GI50 (NCI-H460): > 100 µM (inactive)
- GI50 (A498): 51.6 µM (inactive)
- GI50 (CCRF-CEM): > 100 µM (inactive)
- GI50 (HCT-15): > 100 µM
- GI50 (SNB-19): > 100 µM (inactive)
- GI50 (LOX IMVI): > 100 µM (inactive)
- GI50 (M14): > 100 µM (inactive)
- GI50 (SF-539): > 100 µM (inactive)
- GI50 (NCI-H522): > 100 µM (inactive)
- GI50 (Malme-3M): > 100 µM (inactive)
- GI50 (NCI-H226): > 100 µM (inactive)
- GI50 (RXF 393): 72.3 µM (inactive)
- GI50 (SF-295): > 100 µM (inactive)
- GI50 (SW-620): > 100 µM (inactive)
- GI50 (SR): 94.4 µM (inactive)
- GI50 (UO-31): > 100 µM (inactive)
- GI50 (HOP-62): > 100 µM (inactive)
- GI50 (MCF7): > 100 µM (inactive)
- GI50 (OVCAR-4): > 100 µM (inactive)
- GI50 (OVCAR-3): > 100 µM (inactive)
- GI50 (SK-MEL-2): > 100 µM (inactive)
- GI50 (Hs-578T): 41.8 µM (inactive)
- GI50 (HCC 2998): > 100 µM (inactive)
- GI50 (CAKI-1): 90.2 µM (inactive)
- GI50 (HL-60): 5.33 µM (inactive)
- GI50 (SF-268): > 100 µM (inactive)
- GI50 (MOLT-4): > 100 µM (inactive)
- GI50 (TK-10): > 100 µM (inactive)
- GI50 (MDA-N): > 100 µM (inactive)
- GI50 (786-0): > 100 µM (inactive)

Structure (SMILES): CC(C(=O)NCCNC(=O)CCCC(=O)N(C)O)C(=O)NCCNC(=O)CCCC(=O)N(C)O
- GI50 (IGROV-1): > 100 µM (inactive)
- GI50 (MDA-MB-231): > 100 µM (inactive)
- GI50 (U-251): > 100 µM (inactive)
- GI50 (MDA-MB-435): > 100 µM (inactive)
- GI50 (RPMI-8226): > 100 µM (inactive)
- GI50 (T47D): > 100 µM (inactive)
- GI50 (OVCAR-8): > 100 µM (inactive)
- GI50 (SK-MEL-28): 20.1 µM (inactive)
- GI50 (UACC-62): > 100 µM (inactive)
- GI50 (SNB-75): > 100 µM (inactive)
- GI50 (OVCAR-5): > 100 µM (inactive)
- GI50 (K562): > 100 µM (inactive)
- GI50 (ACHN): > 100 µM (inactive)
- GI50 (KM12): > 100 µM (inactive)
- GI50 (SK-OV-3): > 100 µM (inactive)
- GI50 (NCI/ADR-RES): > 100 µM (inactive)
- GI50 (NCI-H23): > 100 µM (inactive)
- GI50 (PC-3): > 100 µM (inactive)
- GI50 (SK-MEL-5): > 100 µM (inactive)
- GI50 (EKVX): > 100 µM (inactive)
- GI50 (HT-29): > 100 µM (inactive)
- GI50 (COLO 205): > 100 µM (inactive)
- GI50 (UACC-257): > 100 µM (inactive)
- GI50 (A549): > 100 µM (inactive)
- GI50 (HOP-92): > 100 µM (inactive)
- GI50 (DU-145): > 100 µM (inactive)
- GI50 (NCI-H460): > 100 µM (inactive)
- GI50 (A498): > 100 µM (inactive)
- GI50 (CCRF-CEM): > 100 µM (inactive)
- GI50 (HCT-15): > 100 µM
- GI50 (SNB-19): > 100 µM (inactive)
- GI50 (LOX IMVI): > 100 µM (inactive)
- GI50 (M14): > 100 µM (inactive)
- GI50 (NCI-H522): > 100 µM (inactive)
- GI50 (Malme-3M): > 100 µM (inactive)
- GI50 (NCI-H226): > 100 µM (inactive)
- GI50 (RXF 393): > 100 µM (inactive)
- GI50 (SF-295): > 100 µM (inactive)
- GI50 (SW-620): > 100 µM (inactive)
- GI50 (SR): > 100 µM (inactive)
- GI50 (UO-31): > 100 µM (inactive)
- GI50 (HOP-62): > 100 µM (inactive)
- GI50 (MCF7): > 100 µM (inactive)
- GI50 (OVCAR-4): > 100 µM (inactive)
- GI50 (OVCAR-3): > 100 µM (inactive)
- GI50 (SK-MEL-2): > 100 µM (inactive)
- GI50 (Hs-578T): > 100 µM (inactive)
- GI50 (HCC 2998): > 100 µM (inactive)
- GI50 (CAKI-1): > 100 µM (inactive)
- GI50 (HL-60): > 100 µM (inactive)
- GI50 (SF-268): > 100 µM (inactive)
- GI50 (MOLT-4): > 100 µM (inactive)
- GI50 (TK-10): > 100 µM (inactive)
- GI50 (MDA-N): > 100 µM (inactive)
